Patent US12281122B1, “PI3K inhibitors” (Cogent Biosciences, Inc., priority 2023, dated 2025)

Key:
[1] = test system: T47D (PI3Kα-H1047R) cell line; experiment: HTRF phospho-AKT(S473) cell assay in T47D cells; type: cell-based, human; conditions: Homo sapiens; T47D (PI3Kα-H1047R) cells, HTRF phospho-AKT(S473), 2 hours compound incubation
In short: (§1)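 HTRF read-out of phospho-AKT(S473) in lysates gave IC50 values after 2 h compound exposure at 37° C. Dose series was 12 points at 1:3, topping at 5 μM for T47D and 10 μM for SKBR3. Only SKBR3 received 70 ng/ml PDGF-BB during the last 15 minutes.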

[2] = test system: SKBR3 (PI3Kα-Wild Type) cell line; experiment: HTRF phospho-AKT(S473) cell assay in SKBR3 cells; type: cell-based, human; conditions: Homo sapiens, SK-BR-3; SKBR3 (PI3Kα-Wild Type) cells, HTRF phospho-AKT(S473), 2 hours compound incubation, PDGF-BB stimulated
In short: as §1

SMILES	IC50 [1] [µM]	IC50 [2] [µM]
Cc1cc([C@@H](C)Nc2ccc(Cl)nc2C(=O)NS(C)(=O)=O)c2nc(-c3ccc(Nc4ccccc4C)nc3)n(C)c(=O)c2c1 [Compound 283, (R)-6-chloro-3-((1-(3,6-dimethyl-4-oxo-2-(6-(o-tolylamino)pyridin-3-yl)-3,4-dihydroquinazolin-8-yl)ethyl)amino)-N-(methylsulfonyl) picolinamide]	< 0.25	≥ 5
Cc1cc([C@@H](C)Nc2ccc(Cl)nc2C(=O)NS(C)(=O)=O)c2nc(-c3ccc(-c4cnn(C)c4)cn3)n(C)c(=O)c2c1 [Compound 285, (R)-6-chloro-3-((1-(3,6-dimethyl-2-(5-(1-methyl-1H-pyrazol-4-yl)pyridin-2-yl)-4-oxo-3,4-dihydroquinazolin-8-yl)ethyl)amino)-N-(methylsulfonyl) picolinamide]	< 0.25	1 to 5
Cc1cc([C@@H](C)Nc2ccc(Cl)nc2C(=O)NS(C)(=O)=O)c2nc(N3CCc4nn(C)cc4C3)n(C)c(=O)c2c1 [Compound 286, (R)-6-chloro-3-((1-(3,6-dimethyl-2-(2-methyl-2,4,6,7-tetrahydro-5H-pyrazolo[4,3-c]pyridin-5-yl)-4-oxo-3,4-dihydroquinazolin-8-yl)ethyl)amino)-N-(methylsulfonyl) picolinamide]	< 0.25	1 to 5
Cc1cc([C@@H](C)Nc2ccc(Cl)nc2C(=O)NS(C)(=O)=O)c2nc(N3CCC(c4cc(C)n(C)n4)CC3)n(C)c(=O)c2c1 [Compound 287, (R)-6-chloro-3-((1-(2-(4-(1,5-dimethyl-1H-pyrazol-3-yl)piperidin-1-yl)-3,6-dimethyl-4-oxo-3,4-dihydroquinazolin-8-yl)ethyl)amino)-N-(methylsulfonyl) picolinamide]	< 0.25	1 to 5
Cc1cc([C@@H](C)Nc2ccc(Cl)nc2C(=O)NS(C)(=O)=O)c2nc(-c3cnn(C)c3)n(C)c(=O)c2c1 [Compound 288, (R)-6-chloro-3-((1-(3,6-dimethyl-2-(1-methyl-1H-pyrazol-4-yl)-4-oxo-3,4-dihydroquinazolin-8-yl)ethyl)amino)-N-(methylsulfonyl) picolinamide]	< 0.25	1 to 5
Cc1cc([C@@H](C)Nc2ccc(Cl)nc2C(=O)NS(C)(=O)=O)c2nc(N3CCc4nn(CC5COC5)cc4C3)n(C)c(=O)c2c1 [Compound 289, (R)-6-chloro-3-((1-(3,6-dimethyl-2-(2-(oxetan-3-ylmethyl)-2,4,6,7-tetrahydro-5H-pyrazolo[4,3-c]pyridin-5-yl)-4-oxo-3,4-dihydroquinazolin-8-yl)ethyl)amino)-N-(methylsulfonyl) picolinamide]	< 0.25	≥ 5
Cc1cc([C@@H](C)Nc2ccc(Cl)nc2C(=O)NS(C)(=O)=O)c2nc(N3Cc4cn(C5COC5)nc4C3)n(C)c(=O)c2c1 [Compound 290, (R)-6-chloro-3-((1-(3,6-dimethyl-2-(2-(oxetan-3-yl)-2,6-dihydropyrrolo[3,4-c]pyrazol-5(4H)-yl)-4-oxo-3,4-dihydroquinazolin-8-yl)ethyl)amino)-N-(methylsulfonyl) picolinamide]	< 0.25	1 to 5
Cc1cc([C@@H](C)Nc2ccc(Cl)nc2C(=O)NS(C)(=O)=O)c2nc(N3CCC(Nc4cnn(C)c4)CC3)n(C)c(=O)c2c1 [Compound 291, (R)-6-chloro-3-((1-(3,6-dimethyl-2-(4-((1-methyl-1H-pyrazol-4-yl)amino)piperidin-1-yl)-4-oxo-3,4-dihydroquinazolin-8-yl)ethyl)amino)-N-(methylsulfonyl) picolinamide]	< 0.25	1 to 5
Cc1cc([C@@H](C)Nc2ccc(Cl)nc2C(=O)NS(C)(=O)=O)c2nc(-c3cnc(-c4cnn(C)c4)c(Cl)c3)n(C)c(=O)c2c1 [Compound 292, (R)-6-chloro-3-((1-(2-(5-chloro-6-(1-methyl-1H-pyrazol-4-yl)pyridin-3-yl)-3,6-dimethyl-4-oxo-3,4-dihydroquinazolin-8-yl)ethyl)amino)-N-(methylsulfonyl) picolinamide]	< 0.25	1 to 5
Cc1cc([C@@H](C)Nc2ccc(Cl)nc2C(=O)NS(C)(=O)=O)c2nc(-c3cnc(-c4ccn(C)n4)c(Cl)c3)n(C)c(=O)c2c1 [Compound 293, (R)-6-chloro-3-((1-(2-(5-chloro-6-(1-methyl-1H-pyrazol-3-yl)pyridin-3-yl)-3,6-dimethyl-4-oxo-3,4-dihydroquinazolin-8-yl)ethyl)amino)-N-(methylsulfonyl) picolinamide]	0.25 to 0.5	1 to 5
Cc1cc([C@@H](C)Nc2ccc(Cl)nc2C(=O)NS(=O)(=O)C2COC2)c2nc(N3CCOCC3)n(C)c(=O)c2c1 [Compound 294, (R)-6-chloro-3-((1-(3,6-dimethyl-2-morpholino-4-oxo-3,4-dihydroquinazolin-8-yl)ethyl)amino)-N-(oxetan-3-ylsulfonyl)picolinamide]	< 0.25	1 to 5
Cc1cc([C@@H](C)Nc2ccc(Cl)nc2C(=O)NS(C)(=O)=O)c2nc(N3C[C@@H]4[C@H](C3)[C@H]4c3ccn(C)n3)n(C)c(=O)c2c1 [Compound 295, 6-chloro-3-(((R)-1-(3,6-dimethyl-2-((1R,5S,6R)-6-(1-methyl-1H-pyrazol-3-yl)-3-azabicyclo[3.1.0]hexan-3-yl)-4-oxo-3,4-dihydroquinazolin-8-yl)ethyl)amino)-N-(methylsulfonyl) picolinamide]	< 0.25	1 to 5

The remaining lines, values ahead:

IC50 [1] [µM]	IC50 [2] [µM]	SMILES
< 0.25	1 to 5	Cc1cc([C@@H](C)Nc2ccc(Cl)nc2C(=O)NS(C)(=O)=O)c2nc(N3Cc4cccc(-c5ccnn5C)c4C3)n(C)c(=O)c2c1 [Compound 274, (R)-6-chloro-3-((1-(3,6-dimethyl-2-(4-(1-methyl-1H-pyrazol-5-yl)isoindolin-2-yl)-4-oxo-3,4-dihydroquinazolin-8-yl)ethyl)amino)-N-(methylsulfonyl) picolinamide]
< 0.25	≥ 5	Cc1cc([C@@H](C)Nc2ccc(Cl)nc2C(=O)NS(C)(=O)=O)c2nc(N3CCC4(CCC(O)CC4)CC3)n(C)c(=O)c2c1 [Compound 275, (R)-6-chloro-3-((1-(2-(9-hydroxy-3-azaspiro[5.5]undecan-3-yl)-3,6-dimethyl-4-oxo-3,4-dihydroquinazolin-8-yl)ethyl)amino)-N-(methylsulfonyl) picolinamide]
< 0.25	1 to 5	Cc1cc([C@@H](C)Nc2ccc(Cl)nc2C(=O)NS(C)(=O)=O)c2nc(N3CCc4oncc4C3)n(C)c(=O)c2c1 [Compound 276, (R)-6-chloro-3-((1-(2-(6,7-dihydroisoxazolo[4,5-c]pyridin-5(4H)-yl)-3,6-dimethyl-4-oxo-3,4-dihydroquinazolin-8-yl)ethyl)amino)-N-(methylsulfonyl) picolinamide]
< 0.25	1 to 5	Cc1cc([C@@H](C)Nc2ccc(Cl)nc2C(=O)NS(C)(=O)=O)c2nc(N3Cc4cn(-c5ccnn5C)nc4C3)n(C)c(=O)c2c1 [Compound 277, (R)-6-chloro-3-((1-(3,6-dimethyl-2-(2-(1-methyl-1H-pyrazol-5-yl)-2,6-dihydropyrrolo[3,4-c]pyrazol-5(4H)-yl)-4-oxo-3,4-dihydroquinazolin-8-yl)ethyl)amino)-N-(methylsulfonyl) picolinamide]
< 0.25	1 to 5	Cc1cc([C@@H](C)Nc2ccc(Cl)nc2C(=O)NS(C)(=O)=O)c2nc(N3CCC(n4ncc5cc(N)ccc54)CC3)n(C)c(=O)c2c1 [Compound 278, (R)-3-((1-(2-(4-(5-amino-1H-indazol-1-yl)piperidin-1-yl)-3,6-dimethyl-4-oxo-3,4-dihydroquinazolin-8-yl)ethyl)amino)-6-chloro-N-(methylsulfonyl) picolinamide]
< 0.25	1 to 5	Cc1cc([C@@H](C)Nc2ccc(Cl)nc2C(=O)NS(C)(=O)=O)c2nc(N3CCc4nn(CC5CC5)cc4C3)n(C)c(=O)c2c1 [Compound 279, (R)-6-chloro-3-((1-(2-(2-(cyclopropylmethyl)-2,4,6,7-tetrahydro-5H-pyrazolo[4,3-c]pyridin-5-yl)-3,6-dimethyl-4-oxo-3,4-dihydroquinazolin-8-yl)ethyl)amino)-N-(methylsulfonyl) picolinamide]
< 0.25	1 to 5	CC(=O)N1CCC2(CC1)CCN(c1nc3c([C@@H](C)Nc4ccc(Cl)nc4C(=O)NS(C)(=O)=O)cc(C)cc3c(=O)n1C)CC2 [Compound 280, (R)-3-((1-(2-(9-acetyl-3,9-diazaspiro[5.5]undecan-3-yl)-3,6-dimethyl-4-oxo-3,4-dihydroquinazolin-8-yl)ethyl)amino)-6-chloro-N-(methylsulfonyl) picolinamide]
< 0.25	1 to 5	Cc1cc([C@@H](C)Nc2ccc(Cl)nc2C(=O)NS(C)(=O)=O)c2nc(-c3ccc(O[C@H]4CCN(C)CC4(F)F)nc3)n(C)c(=O)c2c1 [Compound 281, 6-chloro-3-(((R)-1-(2-(6-(((S)-3,3-difluoro-1-methylpiperidin-4-yl)oxy)pyridin-3-yl)-3,6-dimethyl-4-oxo-3,4-dihydroquinazolin-8-yl)ethyl)amino)-N-(methylsulfonyl) picolinamide]
< 0.25	≥ 5	COC1CCC2(CC1)CCN(c1nc3c([C@@H](C)Nc4ccc(Cl)nc4C(=O)NS(C)(=O)=O)cc(C)cc3c(=O)n1C)CC2 [Compound 282, (R)-6-chloro-3-((1-(2-(9-methoxy-3-azaspiro[5.5]undecan-3-yl)-3,6-dimethyl-4-oxo-3,4-dihydroquinazolin-8-yl)ethyl)amino)-N-(methylsulfonyl) picolinamide]
